The target in series [1] is T1, hα7-wt nAChR (Homo sapiens, UniProt P36544).
T1 construct: expressed in transfected cells
As to the kind of experiment: Ca2+ flux imaging (FDSS) (Protocol B), PAM activity with choline as agonist. The format is cell-based. The following applies: for EC50: "<5" = no top plateau at maximal concentration; for Emax: read-out: % efficacy. A digest of the protocol: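 Cells stably expressing human wild-type α7 nAChR, loaded with fluo-4AM (2 μM final) up to 120 min in HBSS/10 mM HEPES/5 mM CaCl2/0.1% BSA with 5 mM probenecid. Compounds (0.01–30 μM) added up to 10 min before 100 μM choline; peak fluorescence read on FDSS, potentiation expressed relative to choline-alone response (100%).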
A general note: A change in cytosolic calcium serves as a functional read-out for many receptors and channels.

Structures are written as SMILES.

From patent publication US8143419B2, “Trisubstituted 1,2,4-triazoles” (Janssen Pharmaceutica N. V., priority 2006, dated 2012) come the findings set out here.

T1 sequence (P36544 23-502): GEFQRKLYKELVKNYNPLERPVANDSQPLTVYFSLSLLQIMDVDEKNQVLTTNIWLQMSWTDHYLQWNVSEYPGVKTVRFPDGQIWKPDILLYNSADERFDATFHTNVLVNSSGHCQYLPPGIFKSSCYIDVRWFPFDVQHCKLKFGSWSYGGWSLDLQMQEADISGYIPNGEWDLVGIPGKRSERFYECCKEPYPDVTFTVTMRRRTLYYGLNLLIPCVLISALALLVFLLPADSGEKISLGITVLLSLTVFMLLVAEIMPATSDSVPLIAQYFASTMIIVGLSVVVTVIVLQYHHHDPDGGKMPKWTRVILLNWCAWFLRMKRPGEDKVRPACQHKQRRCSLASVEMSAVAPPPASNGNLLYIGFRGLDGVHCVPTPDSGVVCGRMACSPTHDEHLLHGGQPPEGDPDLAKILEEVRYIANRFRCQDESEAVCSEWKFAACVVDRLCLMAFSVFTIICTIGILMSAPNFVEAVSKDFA

As to `CCc1ccc(-c2nc(Nc3ccc(F)c(C(F)(F)F)c3)nn2CCC(=O)N(C)C)cn1` [Compound 128], the melting point (as a rule, the temperature, or range, at which the solid turns liquid) turned out to be 177.2 °C. Besides, in series [1], the EC50 (commonly the concentration giving half of the maximal effect) is 50.1 nM.

Regarding `CC(C)c1ccc(-c2nc(Nc3ccc(F)c(C(F)(F)F)c3)nn2CCC(=O)N(C)C)cn1` [Compound 129], the melting point turned out to be 176.3 °C. Further, the half-maximal effective concentration (EC50) in series [1] is 39.8 nM.

Regarding `CCNc1ccc(-c2nc(Nc3ccc(F)c(C(F)(F)F)c3)nn2CCC(=O)N(C)C)cn1` [Compound 130], the melting point turned out to be 201.1 °C. Besides, the half-maximal effective concentration (EC50) in series [1] is 100 nM.

The compound `COCCNc1ccc(-c2nc(Nc3ccc(F)c(C(F)(F)F)c3)nn2CCC(=O)N(C)C)cn1` [Compound 131] displayed a melting point of 167.7 °C. In series [1], the EC50 is 398 nM.

The compound `CN(C)C(=O)CCn1nc(Nc2ccc(F)c(C(F)(F)F)c2)nc1-c1ccc(C2CC2)nc1` [Compound 132] yielded a melting point of 177.3 °C. Moreover, the EC50 in series [1] was 15.8 nM.

With `CN(C)C(=O)CCn1nc(Nc2ccc(F)c(C(F)(F)F)c2)nc1-c1ccc(NC2CC2)nc1` [Compound 133], the melting point came to 150.9 °C. Moreover, in series [1], the EC50 was 100 nM.

With `CN(C)C(=O)CCn1nc(Nc2ccc(F)c(C(F)(F)F)c2)nc1-c1ccnc(NC2CC2)c1` [Compound 134], the melting point stood at 219.8 °C. Moreover, the EC50 in series [1] was 20 nM.

The compound `CC(C)NC(=O)CCn1nc(Nc2ccc(F)c(C(F)(F)F)c2)nc1-c1ccncc1` [Compound 136] had a melting point of 217.7 °C. Moreover, the concentration giving a half-maximal response (EC50) in series [1] is 3160 nM.

Consider `CC(=O)NCCn1nc(Nc2ccc(F)c(C(F)(F)F)c2)nc1-c1ccncc1` [Compound 138], for which the melting point was 174.3 °C. The concentration for a half-maximal effect (EC50) in series [1] was over 10000 nM.

Compound `CCOC(=O)NCCn1nc(Nc2ccc(F)c(C(F)(F)F)c2)nc1-c1ccnc(C)c1` [Compound 139] had a melting point of 160.5 °C. Moreover, the EC50 in series [1] was 1000 nM.

`CCOC(=O)NCCn1nc(Nc2ccc(F)c(C(F)(F)F)c2)nc1-c1ccnc(C2CC2)c1` [Compound 140] yielded a melting point of 147.2 °C. In addition, the EC50 in series [1] was 631 nM.

Compound `Cc1nc(CCn2nc(Nc3ccc(F)c(C(F)(F)F)c3)nc2-c2ccncc2)no1` [Compound 141] returned a melting point of 140.3 °C. For the same compound, the half-maximal effective concentration (EC50) in series [1] was 2510 nM.

As for `COc1ccc(Nc2nc(-c3ccncc3)n(CCO)n2)cc1C(F)(F)F` [Compound 143], the melting point came to 240.4 °C. In series [1], the EC50 is 2000 nM.

Compound `COc1ccc(Nc2nc(-c3ccnc(C)c3)n(CCC(=O)N(C)C)n2)cc1C(F)(F)F` [Compound 144] registered a melting point of 177.2 °C. Also, the concentration for a half-maximal effect (EC50) in series [1] is 200 nM.

As to `COc1ccc(Nc2nc(-c3ccncc3Cl)n(CCC(=O)N(C)C)n2)cc1C(F)(F)F` [Compound 145], the melting point is 211.2 °C. The EC50 in series [1] was 200 nM.

Compound `CNC(=O)Cn1nc(Nc2cc(OC)cc(C(F)(F)F)c2)nc1-c1ccnc(NC)c1` [Compound 146] showed a melting point of 241.1 °C. For the same compound, in series [1], the EC50 is 1000 nM.

`Cc1cc(-c2nc(Nc3cccc(OC(F)(F)F)c3)nn2CC(C)O)ccn1` (stereo not shown) [Compound 148] gave a melting point of 130.9 °C. The concentration for a half-maximal effect (EC50) in series [1] was 5010 nM.

Compound `CNC(=O)Cn1nc(Nc2cccc(OC(F)(F)F)c2)nc1-c1ccncc1NC` [Compound 153] came in with a melting point of 208.6 °C. For the same compound, the EC50 in series [1] is 1580 nM.

As for `CNC(=O)Cn1nc(Nc2cccc(OC(F)(F)F)c2)nc1-c1ccncc1F` [Compound 154], the melting point came out at 192.2 °C. For the same compound, the half-maximal effective concentration (EC50) in series [1] is 3160 nM.

Compound `CNC(=O)Cn1nc(Nc2cccc(OC(F)(F)F)c2)nc1-c1ccc(C2CC2)nc1` [Compound 155] displayed a melting point of 217 °C. Further, the EC50 in series [1] is 316 nM.

Compound `CNC(=O)Cn1nc(Nc2cccc(OC(F)(F)F)c2)nc1-c1ccc2c(c1)OCCO2` [Compound 156] yielded a melting point of 185.8 to 191.3 °C. The EC50 in series [1] was 398 nM.

With `CNC(=O)Cn1nc(Nc2cccc(OC(F)(F)F)c2)nc1-c1ccc2c(c1)OCCN2C` [Compound 157], the melting point is 222.4 °C. Besides, the concentration giving a half-maximal response (EC50) in series [1] was 398 nM.

Regarding `CCNC(=O)Cn1nc(Nc2cccc(OC(F)(F)F)c2)nc1-c1ccc2c(c1)OCCO2` [Compound 158], the melting point turned out to be 188.7 °C. In addition, the EC50 in series [1] was 158 nM.

Turning to `COc1ccc(-c2nc(Nc3cccc(OC(F)(F)F)c3)nn2CC(=O)NC(C)C)cc1OC` [Compound 159], the melting point fell in the range of 182.5 to 186.1 °C. In series [1], the EC50 was 794 nM and the Emax is 963%.

For the compound `CC(C)NC(=O)Cn1nc(Nc2cccc(OC(F)(F)F)c2)nc1-c1ccc2c(c1)OCCN2C` [Compound 160], the melting point was 153.3 °C. For the same compound, in series [1], the EC50 is 126 nM.

For `COc1cccc(-c2nc(Nc3cccc(OC(F)(F)F)c3)nn2CC(=O)NC2CC2)c1` [Compound 162], the melting point fell in the range of 196.5 to 206.2 °C. The EC50 in series [1] is 79.4 nM.

`COc1ccc(-c2nc(Nc3cccc(OC(F)(F)F)c3)nn2CC(=O)NC2CC2)cc1OC` [Compound 163] returned a melting point of 192.7 to 195.3 °C. Further, the 50% effective concentration (EC50) in series [1] is 631 nM.

With `Cc1cc(-c2nc(Nc3cccc(OC(F)(F)F)c3)nn2CC(=O)NC2CC2)ccn1` [Compound 164], the melting point came out at 190.7 °C. In series [1], the EC50 is 2000 nM.

Consider `CN1CCOc2cc(-c3nc(Nc4cccc(OC(F)(F)F)c4)nn3CC(=O)NC3CC3)ccc21` [Compound 165], for which the melting point was found to be 168 °C. Besides, the EC50 in series [1] is 158 nM.

`CC1(NC(=O)Cn2nc(Nc3cccc(OC(F)(F)F)c3)nc2-c2ccc3c(c2)OCCO3)CC1` [Compound 166] returned a melting point of 219.3 °C. Besides, the EC50 in series [1] is 200 nM.

`CN(C)C(=O)CCn1nc(Nc2cccc(OC(F)(F)F)c2)nc1-c1ccc(N)c(F)c1` [Compound 167] gave a melting point of 157.1 °C. The EC50 in series [1] was 398 nM.

For `CN(C)C(=O)CCn1nc(Nc2cccc(OC(F)(F)F)c2)nc1-c1ccncc1` [Compound 168], the melting point was found to be 178.4 °C. For the same compound, the concentration for a half-maximal effect (EC50) in series [1] is 501 nM.

`CC(C)c1ccc(-c2nc(Nc3ccc(F)cc3)nn2CCO)cn1` [Compound 169] displayed a melting point of 135.1 °C. In addition, in series [1], the concentration for a half-maximal effect (EC50) was 3160 nM and the Emax was 762%.

On to `CCOc1ccc(-c2nc(Nc3ccc(F)cc3)nn2CCO)cn1` [Compound 170], for which the melting point came out at 162.2 °C. Besides, the half-maximal effective concentration (EC50) in series [1] is over 10000 nM.

As to `OCCn1nc(Nc2ccc(F)cc2)nc1-c1ccc(C2CC2)nc1` [Compound 171], the melting point was 169.8 °C. For the same compound, the EC50 in series [1] was 2510 nM.

In turn, `Cc1cc(-c2nc(Nc3cc(F)c(F)c(F)c3)nn2C[C@H](C)O)cc(Cl)n1` [Compound 172] gave a melting point of 200 °C. Moreover, in series [1], the EC50 is 794 nM and the Emax was determined as 812%.

In turn, `C[C@H](O)Cn1nc(Nc2ccc(F)c(F)c2)nc1-c1ccc(C(=O)N2CCCC2)nc1` [Compound 174] yielded a melting point of 181.7 °C. In series [1], the half-maximal effective concentration (EC50) was over 10000 nM and the Emax was determined as 667%.

For `CNC(=O)Cn1nc(Nc2cc(F)cc(F)c2)nc1-c1ccnc(C2CC2)c1` [Compound 179], the melting point is 222.4 °C. The EC50 in series [1] was 3160 nM.

`CCNC(=O)Cn1nc(Nc2cc(F)c(F)c(F)c2)nc1-c1ccnc(NCC)c1` [Compound 180] came in with a melting point of 259.6 °C. The EC50 in series [1] is 158 nM.

`CCNC(=O)Cn1nc(Nc2cc(F)c(F)c(NCC)c2)nc1-c1ccnc(NCC)c1` [Compound 181] yielded a melting point of 192.8 °C. The EC50 in series [1] was 794 nM.

Consider `Cc1cc(-c2nc(Nc3ccc(F)c(C)c3)nn2CCC(=O)N(C)C)ccn1` [Compound 184], for which the melting point stood at 158.8 °C. Further, the half-maximal effective concentration (EC50) in series [1] is 794 nM.

`Cc1cc(-c2nc(Nc3ccc(F)c(F)c3)nn2CCC(=O)N(C)C)ccn1` [Compound 185] displayed a melting point of 181.3 °C. In series [1], the 50% effective concentration (EC50) was 1000 nM.

Turning to `Cc1cc(-c2nc(Nc3ccc(F)c(C#N)c3)nn2CCC(=O)N(C)C)ccn1` [Compound 186], the melting point is 203.9 °C. Also, the concentration giving a half-maximal response (EC50) in series [1] is 398 nM.

In turn, `COc1cc(Nc2nc(-c3ccnc(C)c3)n(CCC(=O)N(C)C)n2)ccc1F` [Compound 187] displayed a melting point of 137.3 °C. Further, the EC50 in series [1] is 3980 nM.

`COc1cc(Nc2nc(-c3ccnc(C)c3)n(CCC(=O)N(C)C)n2)cc(F)c1F` [Compound 188] returned a melting point of 199.8 °C. In addition, the 50% effective concentration (EC50) in series [1] is 794 nM.

With `CNc1ccc(-c2nc(Nc3cc(F)c(F)cc3F)nn2CCC(=O)N(C)C)cn1` [Compound 189], the melting point worked out at 166.7 °C. The EC50 in series [1] was 794 nM.

As for `CCNc1ccc(-c2nc(Nc3cc(F)c(F)cc3F)nn2CCC(=O)N(C)C)cn1` [Compound 190], the melting point worked out at 134.2 °C. Moreover, in series [1], the EC50 is 398 nM.

As for `CN(C)C(=O)CCn1nc(Nc2ccc(F)c(F)c2)nc1-c1ccc(C(F)(F)F)nc1` [Compound 191], the melting point stood at 194.4 °C. Besides, in series [1], the half-maximal effective concentration (EC50) is 1260 nM.

`Cc1cc(Nc2nc(-c3ccnc(Cl)c3)n(CCC(=O)N(C)C)n2)ccc1F` [Compound 192] came in with a melting point of 149 °C. Also, the half-maximal effective concentration (EC50) in series [1] is 631 nM.

Compound `CN(C)C(=O)CCn1nc(Nc2cc(F)c(F)cc2F)nc1-c1ccc(NC2CC2)nc1` [Compound 193] returned a melting point of 158.2 °C. In series [1], the 50% effective concentration (EC50) is 794 nM.

For the compound `CN(C)C(=O)CCn1nc(Nc2cccc(F)c2)nc1-c1ccc2c(c1)OCCO2` [Compound 194], the melting point was 114.3 to 116.3 °C. Further, in series [1], the concentration for a half-maximal effect (EC50) was 316 nM.
